For the assay, the target named is T1, APOL1 (Homo sapiens, UniProt O14791).
T1 sequence (O14791 1-398 S342G/I384M): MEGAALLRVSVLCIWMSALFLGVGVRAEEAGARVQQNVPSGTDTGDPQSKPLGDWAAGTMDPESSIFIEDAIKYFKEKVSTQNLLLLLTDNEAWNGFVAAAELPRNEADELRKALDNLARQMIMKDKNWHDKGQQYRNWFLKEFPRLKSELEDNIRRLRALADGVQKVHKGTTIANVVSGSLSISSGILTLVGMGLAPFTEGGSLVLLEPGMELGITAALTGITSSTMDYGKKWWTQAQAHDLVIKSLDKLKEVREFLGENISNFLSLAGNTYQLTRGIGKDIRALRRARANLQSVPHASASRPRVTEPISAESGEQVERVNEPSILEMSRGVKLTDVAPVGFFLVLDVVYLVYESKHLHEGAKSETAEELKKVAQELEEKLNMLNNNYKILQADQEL
Put plainly: Multi-Tox Assay (MultiTox-Fluor Multiplex Cytotoxicity Assay in tet-inducible APOL1 T-REx-HEK293 cells; Table 46 does not say which APOL1 variant G0/G1/G2). The format is cell-based. The settings on record: APOL1 variant not given; for IC50: IP50 = IC50 for cell proliferation.

By IC50 is commonly meant the concentration that inhibits the measured activity by half. Higher therefore signals weaker potency in that assay. Usually IC90 stands for the concentration at which the effect reaches the 90% level. Read a high IC90 as a need for much substance.

In the case of `Cc1cc(Cn2cc([C@@H]3C[C@]4(C[C@H](C)N3)OC[C@@H](O)c3cc(Cl)sc34)nn2)ccn1` [Compound 296], the “Multi-Tox Assay Max Activity (%)” value is 99.0% and the IC50 lay in the range of 50 to 500 nM.
For `Cc1nc(Cn2cc([C@@H]3C[C@]4(C[C@H](C)N3)OC[C@@H](O)c3cc(Cl)sc34)nn2)oc1C` [Compound 297] the same measures were 99.0% and below 50 nM.
For `C[C@H]1C[C@@]2(C[C@@H](c3cn(Cc4ncc(F)cc4F)nn3)N1)OC[C@@H](O)c1cc(Cl)sc12` [Compound 298], the “Multi-Tox Assay Max Activity (%)” value is 95.0% and the 50% inhibitory concentration (IC50) was 50 to 500 nM.
As to `C[C@@H](CO)CCn1cc([C@@H]2C[C@]3(C[C@H](C)N2)OC[C@@H](O)c2cc(Cl)sc23)nn1` [Compound 299], the IC90 was in the range of 50 to 500 nM, the “Multi-Tox Assay Max Activity (%)” value came to 99.0% and the 50% inhibitory concentration (IC50) was below 50 nM.
Turning to `C[C@H]1C[C@@]2(C[C@@H](c3cn(C[C@H](O)CO)nn3)N1)OC[C@@H](O)c1cc(Cl)sc12` [Compound 300], the IC90 fell in the range of 50 to 500 nM, the “Multi-Tox Assay Max Activity (%)” value came to 100.0% and the IC50 lay in the range of 50 to 500 nM.
For the compound `C[C@H]1C[C@@]2(C[C@@H](c3cn(CCOc4ccccc4F)nn3)N1)OC[C@@H](O)c1cc(Cl)sc12` [Compound 301], the “Multi-Tox Assay Max Activity (%)” value came out at 99.0% and the IC50 is below 50 nM.
For `C[C@H]1C[C@@]2(C[C@@H](c3cn(Cc4ccc(O)cc4)nn3)N1)OCC(F)(F)c1cc(Cl)sc12` [Compound 302] the same measures were 94.0% and 50 to 500 nM.
For `Cc1cccc(OCC(O)Cn2cc([C@@H]3C[C@]4(C[C@H](C)N3)OCC(F)(F)c3cc(Cl)sc34)nn2)c1` (stereo partly drawn) [Compound 303] the same measures were 99.0% and 50 to 500 nM.
For `Cc1ccccc1C(O)Cn1cc([C@@H]2C[C@]3(C[C@H](C)N2)OCC(F)(F)c2cc(Cl)sc23)nn1` (stereo partly drawn) [Compound 304], the “Multi-Tox Assay Max Activity (%)” value was 99.0% and the IC50 lay within 50 to 500 nM.
As to `C[C@H]1C[C@@]2(C[C@@H](c3cn(CCc4ccncn4)nn3)N1)OCC(F)(F)c1cc(Cl)sc12` [Compound 305], the “Multi-Tox Assay Max Activity (%)” value is on record as 100.0% and the IC50 is below 50 nM.
For `CC(CO)CCn1cc([C@@H]2C[C@]3(C[C@H](C)N2)OCC(F)(F)c2cc(Cl)sc23)nn1` (stereo partly drawn) [Compound 306] the same measures were 99.0% and above 500 nM.
On to `C[C@H]1C[C@@]2(C[C@@H](c3cn(CC4CCS(=O)(=O)C4)nn3)N1)OCC(F)(F)c1cc(Cl)sc12` (stereo partly drawn) [Compound 307], for which the “Multi-Tox Assay Max Activity (%)” value was 99.0% and the half-maximal inhibitory concentration (IC50) is below 50 nM.
Take `C[C@H]1C[C@@]2(C[C@@H](c3cn(Cc4ccc(OC5CCOCC5)cc4)nn3)N1)OCC(F)(F)c1cc(Cl)sc12` [Compound 308]: the “Multi-Tox Assay Max Activity (%)” value is 95.0% and the IC50 lay in the range of 50 to 500 nM.
For `C[C@H]1C[C@@]2(C[C@@H](c3cn(CC4CCOCC4)nn3)N1)OCC(F)(F)c1cc(Cl)sc12` [Compound 309] the same measures were 97.0% and 50 to 500 nM.
For `C[C@H]1C[C@@]2(C[C@@H](c3cn(Cc4cccc5c4OCCO5)nn3)N1)OCC(F)(F)c1cc(Cl)sc12` [Compound 310] the same measures were 94.0% and 50 to 500 nM.
With `C[C@H]1C[C@@]2(C[C@@H](c3cn(CC4CCOC4)nn3)N1)OCC(F)(F)c1cc(Cl)sc12` (stereo partly drawn) [Compound 311], the “Multi-Tox Assay Max Activity (%)” value worked out at 99.0% and the IC50 was below 50 nM.
For the compound `COCC1(Cn2cc([C@@H]3C[C@]4(C[C@H](C)N3)OCC(F)(F)c3cc(Cl)sc34)nn2)CC1` [Compound 312], the IC90 was above 500 nM, the “Multi-Tox Assay Max Activity (%)” value stood at 91.0% and the IC50 is above 500 nM.
As for `C[C@H]1C[C@@]2(C[C@@H](c3cn(Cc4cccc(CO)c4)nn3)N1)OCC(F)(F)c1cc(Cl)sc12` [Compound 313], the “Multi-Tox Assay Max Activity (%)” value was 98.0% and the IC50 fell in the range of 50 to 500 nM.
For `C[C@H]1C[C@@]2(C[C@@H](c3cn(CCC4CCCOC4)nn3)N1)OCC(F)(F)c1cc(Cl)sc12` (stereo partly drawn) [Compound 314], in that order: 99.0% and below 50 nM.
For `Cc1ccnn1CCn1cc([C@@H]2C[C@]3(C[C@H](C)N2)OCC(F)(F)c2cc(Cl)sc23)nn1` [Compound 315], in that order: 98.0% and 50 to 500 nM.
For `C[C@H]1C[C@@]2(C[C@@H](c3cn(Cc4ccc(O)nc4)nn3)N1)OCC(F)(F)c1cc(Cl)sc12` [Compound 316], in that order: 95.0% and 50 to 500 nM.
Take `C[C@H]1C[C@@]2(C[C@@H](c3cn(Cc4cnccn4)nn3)N1)OCC(F)(F)c1cc(Cl)sc12` [Compound 317]: the “Multi-Tox Assay Max Activity (%)” value is recorded as 98.0% and the 50% inhibitory concentration (IC50) was 50 to 500 nM.
For `Cc1ncc(Cn2cc([C@@H]3C[C@]4(C[C@H](C)N3)OCC(F)(F)c3cc(Cl)sc34)nn2)cn1` [Compound 318] the same measures were 99.0% and below 50 nM.
Regarding `COc1cccc(Cn2cc([C@@H]3C[C@]4(C[C@H](C)N3)OCC(F)(F)c3cc(Cl)sc34)nn2)c1` [Compound 319], the “Multi-Tox Assay Max Activity (%)” value was determined as 95.0% and the IC50 lay within 50 to 500 nM.
On to `C[C@H]1C[C@@]2(C[C@@H](c3cn(Cc4cccc(O)c4)nn3)N1)OCC(F)(F)c1cc(Cl)sc12` [Compound 320], for which the “Multi-Tox Assay Max Activity (%)” value worked out at 95.0% and the 50% inhibitory concentration (IC50) lay in the range of 50 to 500 nM.
For `C[C@H]1C[C@@]2(C[C@@H](c3cn(Cc4cccnn4)nn3)N1)OCC(F)(F)c1cc(Cl)sc12` [Compound 321], the “Multi-Tox Assay Max Activity (%)” value stood at 99.0% and the IC50 was below 50 nM.
Consider `C[C@H]1C[C@@]2(C[C@@H](c3cn(CC(O)c4ccccc4)nn3)N1)OCC(F)(F)c1cc(Cl)sc12` (stereo partly drawn) [Compound 322], for which the “Multi-Tox Assay Max Activity (%)” value was found to be 97.0% and the half-inhibitory concentration (IC50) is 50 to 500 nM.
As to `COCCn1cc([C@@H]2C[C@]3(C[C@H](C)N2)OCC(F)(F)c2cc(Cl)sc23)nn1` [Compound 323], the “Multi-Tox Assay Max Activity (%)” value came out at 100.0% and the 50% inhibitory concentration (IC50) was below 50 nM.
In the case of `C[C@H]1C[C@@]2(C[C@@H](c3cn(CC(F)F)nn3)N1)OCC(F)(F)c1cc(Cl)sc12` [Compound 324], the “Multi-Tox Assay Max Activity (%)” value is listed as 96.0% and the half-maximal inhibitory concentration (IC50) fell in the range of 50 to 500 nM.
For `CCC(O)Cn1cc([C@@H]2C[C@]3(C[C@H](C)N2)OCC(F)(F)c2cc(Cl)sc23)nn1` (stereo partly drawn) [Compound 325], in that order: 98.0% and below 50 nM.
In the case of `Cc1c(Cn2cc([C@@H]3C[C@]4(C[C@H](C)N3)OCC(F)(F)c3cc(Cl)sc34)nn2)cnn1C` [Compound 326], the “Multi-Tox Assay Max Activity (%)” value is 97.0% and the IC50 was 50 to 500 nM.
As to `CC(C)N1CC(Cn2cc([C@@H]3C[C@]4(C[C@H](C)N3)OCC(F)(F)c3cc(Cl)sc34)nn2)CC1=O` (stereo partly drawn) [Compound 327], the “Multi-Tox Assay Max Activity (%)” value is 98.0% and the half-inhibitory concentration (IC50) is below 50 nM.
In the case of `C[C@H]1C[C@@]2(C[C@@H](c3cn(CCC(N)=O)nn3)N1)OCC(F)(F)c1cc(Cl)sc12` [Compound 328], the “Multi-Tox Assay Max Activity (%)” value amounted to 100.0% and the 50% inhibitory concentration (IC50) was below 50 nM.
As to `C[C@H]1C[C@@]2(C[C@@H](c3cn(CC4(F)CCOCC4)nn3)N1)OCC(F)(F)c1cc(Cl)sc12` [Compound 329], the IC50 was above 500 nM.
In the case of `CCn1cc(Cn2cc([C@@H]3C[C@]4(C[C@H](C)N3)OCC(F)(F)c3cc(Cl)sc34)nn2)cn1` [Compound 330], the “Multi-Tox Assay Max Activity (%)” value was determined as 99.0% and the IC50 was below 50 nM.
Consider `C[C@H]1C[C@@]2(C[C@@H](c3cn(Cc4cocn4)nn3)N1)OCC(F)(F)c1cc(Cl)sc12` [Compound 331], for which the “Multi-Tox Assay Max Activity (%)” value was determined as 98.0% and the concentration for half-maximal inhibition (IC50) was below 50 nM.
For `C[C@H]1C[C@@]2(C[C@@H](c3cn(Cc4ccccn4)nn3)N1)OCC(F)(F)c1cc(Cl)sc12` [Compound 332], in that order: 96.0% and 50 to 500 nM.
For the compound `COc1cc(F)cc(Cn2cc([C@@H]3C[C@]4(C[C@H](C)N3)OCC(F)(F)c3cc(Cl)sc34)nn2)c1` [Compound 333], the “Multi-Tox Assay Max Activity (%)” value worked out at 97.0% and the IC50 was 50 to 500 nM.
In the case of `Cc1ccc(Cn2cc([C@@H]3C[C@]4(C[C@H](C)N3)OCC(F)(F)c3cc(Cl)sc34)nn2)nc1` [Compound 334], the “Multi-Tox Assay Max Activity (%)” value is on record as 96.0% and the IC50 lay in the range of 50 to 500 nM.
For `COc1ccc(Cn2cc([C@@H]3C[C@]4(C[C@H](C)N3)OCC(F)(F)c3cc(Cl)sc34)nn2)cc1` [Compound 335] the same measures were 96.0% and 50 to 500 nM.
For the compound `Cc1cc(Cn2cc([C@@H]3C[C@]4(C[C@H](C)N3)OCC(F)(F)c3cc(Cl)sc34)nn2)ccn1` [Compound 336], the “Multi-Tox Assay Max Activity (%)” value worked out at 99.0% and the IC50 was below 50 nM.
Turning to `Cc1nc(Cn2cc([C@@H]3C[C@]4(C[C@H](C)N3)OCC(F)(F)c3cc(Cl)sc34)nn2)oc1C` [Compound 337], the “Multi-Tox Assay Max Activity (%)” value is 99.0% and the 50% inhibitory concentration (IC50) was below 50 nM.
For `Cc1nnc(Cn2cc([C@@H]3C[C@]4(C[C@H](C)N3)OCC(F)(F)c3cc(Cl)sc34)nn2)[nH]1` [Compound 339], in that order: 97.0% and 50 to 500 nM.
For `COCCOCCn1cc([C@@H]2C[C@]3(C[C@H](C)N2)OCC(F)(F)c2cc(Cl)sc23)nn1` [Compound 340], the “Multi-Tox Assay Max Activity (%)” value came to 98.0% and the IC50 was in the range of 50 to 500 nM.

Values taken from patent US12421249B2, “Inhibitors of APOL1 and methods of using same” (Vertex Pharmaceuticals Incorporated, priority 2020, dated 2025).
